These results are taken from ChEMBL document CHEMBL5046228 (Eur J Med Chem, 2022).

Assay [1] concerns NCI-H1975. Briefly: Induction of apoptosis in human NCI-H1975 cells assessed as increase in necrotic cells at 2.5 uM after 36 hrs by annexin-V-FITC/PI staining based flow cytometric analysis (reference value: 0.35%). The assay is classed as functional.
In assay [2] the test system is NCI-H1975. Put plainly: Induction of cell cycle arrest in human NCI-H1975 cells assessed as accumulation at G2/M phase at 2.5 uM after 36 hrs by PI staining based flow cytometry analysis (reference value: 43.1%). The assay is classed as functional.

`C#CCN(C)CCN(C)c1cc(OC)c(Nc2nccc(Nc3cn(C)c4ccccc34)n2)cc1NC(=O)C=C`: the Activity in the assay with NCI-H1975 [1] is on record as 0.012%; in the assay with NCI-H1975 [2], 64.6%.
